Results on 99 molecules are retold here after ChEMBL document CHEMBL3507680, “University of Dundee, Gates Library screen for HepG2 cell viability”.

The structures appear in SMILES notation.

This series in a line: Human HepG2 cell viability assay in 384 well format. Format: toxicity, cell-based. Set-up: dose 125 nL, time 70.5 hour; cytotoxicity at 70.5 h: concentration not given beside the values. Particulars: HepG2 cells, read-out: Inhibition.
Take `CCc1nc(C)cc(NC(C)C(=O)Nc2cc(F)ccc2C)n1` (centres undefined): the cytotoxicity at 70.5 h was -15.5%. As for `CCC(O)CN1CCN(C(=O)Cc2cc(C)ccc2OC)CC1` (centres undefined), the figure is -1.58%.

As to `Cc1ccc(N2CCC(C(O)c3cccs3)CC2)nn1` (centres undefined), the cytotoxicity at 70.5 h was -4.12%. As for `Cc1cc(N[C@H](CO)COCc2ccccc2)n2nc(C)cc2n1`, the figure is -0.86%; as for `COc1cc(C)ccc1C(=O)N1C[C@@H](CN(C)CCO)[C@@H](CO)C1`, 4.4%.

On to `COc1ccc(CC(=O)N2CC[C@@]3(O)CCNC[C@H]3C2)c(OC)c1`, for which the cytotoxicity at 70.5 h was -7.58%.

Turning to `O=C(c1nc(N2CCCC2)ncc1Cl)N1CCN(Cc2ccsc2)CC1`, the cytotoxicity at 70.5 h was determined as 29%. Under `CCS(=O)(=O)N1C[C@@H]2CN(Cc3cccs3)CCO[C@@H]2C1` stands 6.04%. In the case of `CCC(C)NC(=O)c1cc(S(=O)(=O)N2CCCC2)c(C)s1` (centres undefined), the cytotoxicity at 70.5 h is -3.53%. Under `Cc1ncsc1C(=O)NCC1CCC2(CCNCC2)CO1` (centres undefined) stands -6.8%; under `Cc1ccc(CN2CC3(CCNCC3)CCC2=O)c(F)c1F`, -0.751%. As for `CS(=O)(=O)N1Cc2nc(C(=O)NCc3ccccc3)oc2C1`, the figure is -5.1%. As for `O=C(N[C@@H]1CN(Cc2c[nH]nc2-c2ccccc2)C[C@H]1O)c1cc[nH]n1`, the figure is -9.21%; as for `CN(Cc1cccc(-n2cccn2)c1)C(=O)c1cccc(N(C)C)c1`, -10.6%; as for `Cc1ccc(CN2CCCn3nnc(COCCN(C)C)c3C2)s1`, -16%. With `O=C(c1ccc(-c2cccc3c2CCNC3)o1)N1CCCC1`, the cytotoxicity at 70.5 h was -9.64%. As for `COC(=O)c1sccc1S(=O)(=O)NCCC(O)c1ccco1` (centres undefined), the figure is -8.35%; as for `CCN(CC1CCOC1)C(=O)Nc1ccc(N2CCCCC2)nc1` (centres undefined), -1.47%; as for `Cc1ccc(NC2CCN(C(=O)c3cc4c(s3)CCC4)CC2)nn1`, -13.9%. As for `O=S(=O)(C1CC1)N1CCO[C@H]2[C@H](OCCN3CCCC3)CC[C@@H]21`, the figure is 23.9%. As for `Cc1nccc(-c2cccc(NCC(=O)N3CCNC(=O)C3)c2)n1`, the figure is -5.62%; as for `O=C(O)c1c(-c2cncnc2)ncc2c1CCN(Cc1ccco1)C2`, 24.2%; as for `Cc1nn(CCNC(C)Cn2ccnc2)c(C)c1Cl` (centres undefined), -1.29%. As for `Cc1cc2cccc(C(=O)N3CCOC(CCN(C)C)C3)c2o1` (centres undefined), the cytotoxicity at 70.5 h is -17.3%. Regarding `Cc1nc2cc(O)nn2c(C)c1CCC(=O)N(C)CCC(C)C`, the cytotoxicity at 70.5 h was -7.92%.

Take `CN(C)CC(=O)N1Cc2nc(C(=O)NCc3ccncc3)oc2C1`: the cytotoxicity at 70.5 h is -14.7%. Consider `COC(=O)C(NC(=O)c1cc(F)cc(F)c1)c1cccnc1` (centres undefined), for which the cytotoxicity at 70.5 h is -8.87%.

Take `CNC(=O)[C@@H]1C[C@H]2CN(c3ncccn3)C[C@H]2N1C(C)C`: the cytotoxicity at 70.5 h was -1.97%.

Regarding `COC(=O)N1CCCC(C(=O)Nc2ccccc2CN2CCCC2)C1` (centres undefined), the cytotoxicity at 70.5 h is -0.192%. Regarding `CSC(C)C(=O)N1CCN(CC(C)(C)O)CC1` (centres undefined), the cytotoxicity at 70.5 h is -14%. For the molecule `CCC(C(=O)NCc1ccncc1)N(c1ccc(OC)cc1)S(C)(=O)=O` (centres undefined), the cytotoxicity at 70.5 h was -4.69%.

`Cc1ccccc1C(=O)N1CCO[C@H]2[C@H](OCCN(C)C)CC[C@@H]21`: the cytotoxicity at 70.5 h was -2.16%.

Regarding `CC(C)N(C)CC(=O)N1CCCC(n2ccnc2)C1` (centres undefined), the cytotoxicity at 70.5 h amounted to 1.97%. Under `Cc1cc(C)nc(N2CCC(C(=O)Nc3n[nH]c(C)n3)CC2)n1` stands -7.75%. Regarding `Cc1cc(C)n(-c2ccc(C(=O)NCC(CO)Cc3ccco3)cc2)n1` (centres undefined), the cytotoxicity at 70.5 h was -7.33%. As for `Cc1nc(C)c(CN2CCOC(CNc3cccnn3)C2)s1` (centres undefined), the figure is -5.6%. As for `CN(C)c1ncccc1CNS(=O)(=O)c1cc(F)ccc1F`, the figure is -11.5%; as for `Cc1cc(CN2CCCC2)cc(Oc2ccc3c(c2)CC(CN)O3)c1` (centres undefined), -11.7%.

Regarding `COc1ccc(Cl)cc1NCc1cc(C)on1`, the cytotoxicity at 70.5 h is -3.4%. As for `c1cnc(N2CCOCC3(CCCN(c4nncs4)C3)C2)cn1` (centres undefined), the figure is -3.82%; as for `O=C(Nc1ccc2c(c1)OCO2)N1CCN(CCn2cccn2)CC1`, -11.3%.

For `OC(CN(Cc1ccccc1)Cc1ccncc1)c1ccco1` (centres undefined), the cytotoxicity at 70.5 h was 26%.

`CS(=O)(=O)N1CCn2c(C(=O)N3CCOCC3)cnc2C1`: the cytotoxicity at 70.5 h was -0.596%. For `COc1ccc(CCC(=O)NC2CCC(O)CC2)cc1OC` (centres undefined), the cytotoxicity at 70.5 h was -4.91%. As for `CC(=O)c1cnc(NCCCN2CCOCC2)nc1C`, the figure is 14.7%. Turning to `Cc1nn(C)c2nc(N3CCCCC3c3nccs3)sc12` (centres undefined), the cytotoxicity at 70.5 h was 5.1%.

As to `CCc1nc(C2CCCN2C(=O)c2nccnc2N)no1` (centres undefined), the cytotoxicity at 70.5 h was -18.5%. Under `O=C(O)CC1COCCN1CCCc1ccccc1` (centres undefined) stands -11.2%; under `COCCNC(=O)[C@@H]1CN(c2ncccn2)C[C@H]2OCC[C@H]21`, -2.54%. As for `O=C(c1cc(-c2ccco2)nc2c(Cl)cccc12)N1CC[C@H]2CNC[C@H]21`, the figure is 19.8%; as for `O=C1COC2(CCN(CC3CCOCC3)CC2)CN1Cc1ccccn1`, -0.458%. As to `Cn1ccc(C(=O)N2CCN(Cc3ccccc3F)CC2)cc1=O`, the cytotoxicity at 70.5 h is -0.663%. Under `COCCC(=O)N1CC[C@@H](N2CCOCC2)[C@@H]1Cc1ccccc1` stands -8.94%. As for `Cc1cnc(N2Cc3nccn3CC(Cn3ncccc3=O)C2)nc1` (centres undefined), the figure is -1%; as for `c1cnc(N2CCN(Cc3nnnn3C3CC3)CC2)nc1`, -16.2%. For the molecule `CCOCCNC(=O)CCC1CCCO1` (centres undefined), the cytotoxicity at 70.5 h came to 35.5%. For the molecule `Cc1noc(C)c1-c1n[nH]c2c1CN(S(=O)(=O)c1cccnc1)CC2`, the cytotoxicity at 70.5 h is -6.84%. Under `O=C1CC[C@H](C(=O)Nc2cnn(-c3ccccc3Br)c2)N1` stands -16.8%; under `CC(Cn1cccn1)NCC(=O)NC1CCOCC1` (centres undefined), 6.94%; under `CC1=N[C@@]2(CC[C@@H]3CN(Cc4ccccc4)C[C@@H]32)C(=O)N1CC1CC1`, -21.6%. Under `O=C(C1CCOCC1)N1C[C@@H]2[C@@H](C1)OCC(=O)N2CC1CC1` stands -6.04%; under `CC(C)c1nc(CN2CCCC(O)C2)cs1` (centres undefined), 13.1%. Under `Cc1cc(C(=O)CN2CCN(c3cnccn3)CC2)c(C)n1C(C)C` stands -10.7%; under `Cc1ccc(CNC(C)(C)c2noc(C(C)(C)C)n2)o1`, -1.89%; under `Cc1cccc(OCC(=O)N2CCN(C3CCOC3=O)CC2)c1C` (centres undefined), -2.32%. Regarding `COc1ccc(CNCc2nnc3n2CC(C(F)(F)F)CC3)cc1` (centres undefined), the cytotoxicity at 70.5 h came out at 26.4%. Under `COc1ccc(CC(=O)N2CCCC(n3cccn3)C2)cc1F` (centres undefined) stands -6.84%; under `CCC(C(=O)N1CCCN(CCN(C)C)CC1)N1CCCC1=O` (centres undefined), 0.544%; under `CC1CN(C)CCN1C(=O)Nc1nc(-c2ccco2)cs1` (centres undefined), -13.7%. As for `Cc1cnc(NS(=O)(=O)c2cccc(C#N)c2)s1`, the figure is 20.1%; as for `Cc1ccc(-c2nc(CN3CCN(S(=O)(=O)N(C)C)CC3)cs2)o1`, 1.51%. Under `Cn1ccc(CNC(=O)Nc2ccc(S(=O)(=O)C(F)F)cc2)c1` stands -2.09%; under `CC(C)(C)c1nnc2n1C(C(=O)N1CCN(c3ncccn3)CC1)CC2` (centres undefined), -11.2%.

Regarding `Cc1nc2cc(C(=O)N3CCCC(n4ccnc4)C3)ccc2n1C` (centres undefined), the cytotoxicity at 70.5 h was -2.44%.

For the molecule `O=C1CCCC2=C1C(c1ccccc1F)Nc1nonc1N2` (centres undefined), the cytotoxicity at 70.5 h is -3.65%. As for `c1ccc(CCN2CCCC(c3ccnc4nccn34)C2)cc1` (centres undefined), the figure is -1.37%; as for `COc1cccc(CN2CCC3(CCN(c4ncc(C)cn4)CC3)C2)c1`, 1.49%. Regarding `O=C1CCC2(CCN(CCSc3ccccc3)CC2)CN1CCCO`, the cytotoxicity at 70.5 h was -1.81%. As for `N#Cc1cccnc1N1CCN(C(=O)c2cccs2)CC1`, the figure is -3%; as for `O=C(NCc1ccc(-n2cncn2)nc1)c1cc(Cl)c2c(c1)OCCO2`, -3.48%; as for `N#Cc1cccc(CN2CCn3cc(CNC(=O)C4CCC4)nc3C2)c1`, -6.27%.

For the molecule `CNS(=O)(=O)c1cc(C)c2[nH]c(=O)cc(C)c2c1`, the cytotoxicity at 70.5 h is -16.4%. For the molecule `CCCN1CCc2nc(N3CCOCC3)nc(NC(C)C)c2C1`, the cytotoxicity at 70.5 h is -8.9%. Under `Cn1ccnc1CN1CCC2(COCCN(Cc3ccsc3)C2)C1` (centres undefined) stands -11.4%; under `CN1CCN2CCN(C(=O)c3cnn4cc(CCO)cnc34)CC2C1` (centres undefined), -8.48%. For `Cn1ccc2cc(C(=O)NC3CCS(=O)(=O)C3)ccc21` (centres undefined), the cytotoxicity at 70.5 h was -10.9%. Under `Cn1cccc1C(=O)N1CCCC1c1ccc(CN2CCOCC2)cn1` (centres undefined) stands -1.35%; under `CC(=O)N1CCC2(CCCN2Cc2cnn(C)c2)CC1`, -10%. Under `CC(C)N1CCC(c2ccnc3c(C(=O)N4CCOCC4)ncn23)CC1` stands -5.36%; under `CC(c1ccccc1)N(C)C(=O)Cn1cc(NC(=O)C(C)(C)C)cn1` (centres undefined), -3.77%; under `CC(=O)Nc1cc(CCC2CCN(C(=O)c3ccccn3)CC2)ccn1`, -14.2%.

`CCn1cc(Br)c(C(=O)NCc2ccccc2)n1`: the cytotoxicity at 70.5 h was determined as 1.89%. On to `Cc1nnc(N(CCC#N)CCC#N)s1`, for which the cytotoxicity at 70.5 h was -5.52%. In the case of `Cc1cccc(CN2CCC3(CCN(c4ncccn4)C3)C2=O)c1` (centres undefined), the cytotoxicity at 70.5 h is -8.75%. As for `Cc1ccccc1-c1cc(NC(=O)CC(C)C)n(CCO)n1`, the figure is 5.13%. Under `COc1ccc(Cl)cc1CN(C)C(=O)CN1C(=O)OC[C@@H]1C(C)C` stands -6.97%; under `CC(=O)N1CCN([C@@H]2CC[C@@H](NC(=O)c3cc(C)cs3)[C@H]2O)CC1`, -4.78%; under `CCOc1ccccc1-c1noc(CN2CC(n3cccn3)C2)n1`, -14.4%. Under `Cc1cnn(CC2CCCN2C(=O)c2c(C)noc2C)c1` (centres undefined) stands -11%.
